Measurements taken from patent US11390616B2 (BRISTOL-MYERS SQUIBB COMPANY, priority 2015, dated 2022).

target: T1, human APJ receptor (Homo sapiens, UniProt P35414); experiment: Intracellular cAMP accumulation assay (APJ hcAMP, HTRF); format: cell-based; settings: HEK293 cells stably expressing human APJ receptor; inhibition of forskolin-mediated cAMP production; read-out: APJ cAMP Potency range
T1 construct: expressed in transfected cells; host or cells: HEK293
T1 sequence (P35414 1-380): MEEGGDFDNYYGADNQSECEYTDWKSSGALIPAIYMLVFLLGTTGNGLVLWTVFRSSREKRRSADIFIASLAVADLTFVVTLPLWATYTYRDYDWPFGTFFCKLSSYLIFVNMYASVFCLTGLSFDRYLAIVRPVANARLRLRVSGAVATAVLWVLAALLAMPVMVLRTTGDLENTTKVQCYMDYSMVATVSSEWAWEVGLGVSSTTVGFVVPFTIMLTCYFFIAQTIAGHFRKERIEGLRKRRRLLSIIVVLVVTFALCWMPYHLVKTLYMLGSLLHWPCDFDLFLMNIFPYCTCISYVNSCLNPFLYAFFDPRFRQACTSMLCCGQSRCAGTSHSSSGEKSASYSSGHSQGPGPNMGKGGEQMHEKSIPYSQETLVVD
Procedure: Intracellular cAMP Accumulation Assay
HEK293 cells stably expressing human APJ receptor were used to assess the activity of compounds. Cultured cells were detached and resuspended in the cAMP Homogeneous Time-Resolved Fluorescence (HTRF) assay buffer (Cisbio cat; #62AM4PEJ). The assay was performed in 384-well assay plates (Perkin-Elmer; cat #6008289) according to assay protocol provided by the manufacturer. Serial dilutions of a compound together with assay buffer containing […] IBMX and 2 μM forskolin were added to each well containing 5,000 cells and incubated for 30 minutes at room temperature. Subsequently, cAMP D2 reagent was added in the lysis buffer followed by the EuK antibody (Cisbio; cat #62AM4PEJ) and incubated for 60 min. The fluorescence emission ratio was measured using fluorometer. The intracellular cAMP concentrations (compound-stimulated inhibition of forskolin-mediated cAMP production) were calculated by extrapolation from a standard curve using known cAMP concentrations. The EC50 values were obtained by fitting the data to a sigmoidal concentration-response curve with variable slope. The maximal achievable inhibition of forskolin-induced cAMP levels (Ymax) for each compound was expressed as relative percentage of inhibition attained using pyroglutamated apelin-13 ((Pyr1)apelin-13) peptide, which was set to 100%.
The examples disclosed below were tested in the APJ in vitro assays described above and were found having human APJ cyclic AMP (hcAMP) activity. The EC50 value of each compound is presented at the end of the example description.
The biological activity of the exemplified compounds of this invention determined by the assay described above is shown at the end of each example.

EC50 [nM] | SMILES
0.01 to 10 | CCCCc1nc(O)c(Cc2ccc(-c3ccc(Cl)cn3)cc2)c(=O)n1-c1c(OC)cccc1OC [Example 46, 2-butyl-5-{[4-(5-chloropyridin-2-yl)phenyl]methyl}-3-(2,6-dimethoxyphenyl)-6-hydroxy-3,4-dihydropyrimidin-4-one]
0.01 to 10 | CCCCc1nc(O)c(Cc2ccc(-n3cc(F)ccc3=O)cc2)c(=O)n1-c1c(OC)cccc1OC [Example 47, 2-butyl-3-(2,6-dimethoxyphenyl)-5-{[4-(5-fluoro-2-oxo-1,2-dihydropyridin-1-yl)phenyl]methyl}-6-hydroxy-3,4-dihydropyrimidin-4-one]
0.01 to 10 | CCCCc1nc(O)c(Cc2ccc(-c3cccnc3OC)cc2)c(=O)n1-c1c(OC)cccc1OC [Example 48, 2-butyl-3-(2,6-dimethoxyphenyl)-6-hydroxy-5-{[4-(2-methoxypyridin-3-yl)phenyl]methyl}-3,4-dihydropyrimidin-4-one]
0.01 to 10 | CCCCc1nc(O)c(Cc2ccc(-n3cc(Cl)ccc3=O)cc2)c(=O)n1-c1c(OC)cccc1OC [Example 49, 2-butyl-5-{[4-(5-chloro-2-oxo-1,2-dihydropyridin-1-yl)phenyl]methyl}-3-(2,6-dimethoxyphenyl)-6-hydroxy-3,4-dihydropyrimidin-4-one]
0.01 to 10 | CCCCc1nc(O)c(Cc2ccc(-n3cc(C)ccc3=O)cc2)c(=O)n1-c1c(OC)cccc1OC [Example 50, 2-butyl-3-(2,6-dimethoxyphenyl)-6-hydroxy-5-{[4-(5-methyl-2-oxo-1,2-dihydropyridin-1-yl)phenyl]methyl}-3,4-dihydropyrimidin-4-one]
0.01 to 10 | COc1cccc(OC)c1-n1c(C2CCCC2)nc(O)c(Cc2ccc(-n3cc(F)ccc3=O)cc2)c1=O [Example 51, 2-cyclopentyl-3-(2,6-dimethoxyphenyl)-5-{[4-(5-fluoro-2-oxo-1,2-dihydropyridin-1-yl)phenyl]methyl}-6-hydroxy-3,4-dihydropyrimidin-4-one]
0.01 to 10 | COc1cccc(OC)c1-n1c(CCC(C)C)nc(O)c(Cc2ccc(-n3cc(F)ccc3=O)cc2)c1=O [Example 52, 3-(2,6-dimethoxyphenyl)-5-{[4-(5-fluoro-2-oxo-1,2-dihydropyridin-1-yl)phenyl]methyl}-6-hydroxy-2-(3-methylbutyl)-3,4-dihydropyrimidin-4-one]
0.01 to 10 | COc1cccc(OC)c1-n1c(CCC(C)C)nc(O)c(Cc2ccc(-n3cc(Cl)ccc3=O)cc2)c1=O [Example 53, 5-{[4-(5-chloro-2-oxo-1,2-dihydropyridin-1-yl)phenyl]methyl}-3-(2,6-dimethoxyphenyl)-6-hydroxy-2-(3-methylbutyl)-3,4-dihydropyrimidin-4-one]
0.01 to 10 | COc1cccc(OC)c1-n1c(CCC(C)C)nc(O)c(Cc2ccc(-n3cc(C)ccc3=O)cc2)c1=O [Example 54, 3-(2,6-dimethoxyphenyl)-6-hydroxy-5-{[4-(5-methyl-2-oxo-1,2-dihydropyridin-1-yl)phenyl]methyl}-2-(3-methylbutyl)-3,4-dihydropyrimidin-4-one]

The next lines start with the molecule.

SMILES | EC50 [nM]
CCCCc1nc(O)c(Cc2ccc(-c3ccc(OC)cc3)nc2)c(=O)n1-c1c(OC)cccc1OC [Example 29, 2-butyl-3-(2,6-dimethoxyphenyl)-6-hydroxy-5-{[6-(4-methoxyphenyl)pyridin-3-yl]methyl}-3,4-dihydropyrimidin-4-one] | 0.01 to 10
CCCCc1nc(O)c(Cc2cnn(Cc3ccccc3)c2)c(=O)n1-c1c(OC)cccc1OC [Example 30, 5-[(1-benzyl-1H-pyrazol-4-yl)methyl]-2-butyl-3-(2,6-dimethoxyphenyl)-6-hydroxy-3,4-dihydropyrimidin-4-one] | 0.01 to 10
CCOCc1nc(O)c(Cc2ccn(-c3ccc(Cl)cc3)n2)c(=O)n1-c1c(OC)cccc1OC [Example 31, 5-{[1-(4-chlorophenyl)-1H-pyrazol-3-yl]methyl}-3-(2,6-dimethoxyphenyl)-2-(ethoxymethyl)-6-hydroxy-3,4-dihydropyrimidin-4-one] | 10 to 100
CCOCc1nc(O)c(Cc2ccc(-c3ncon3)cc2)c(=O)n1-c1c(OC)cccc1OC [Example 32, 3-(2,6-dimethoxyphenyl)-2-(ethoxymethyl)-6-hydroxy-5-{[4-(1,2,4-oxadiazol-3-yl)phenyl]methyl}-3,4-dihydropyrimidin-4-one] | 10 to 100
CCOCc1nc(O)c(Cc2coc(-c3ccc(Cl)cc3)n2)c(=O)n1-c1c(OC)cccc1OC [Example 33, 5-{[2-(4-chlorophenyl)-1,3-oxazol-4-yl]methyl}-3-(2,6-dimethoxyphenyl)-2-(ethoxymethyl)-6-hydroxy-3,4-dihydropyrimidin-4-one] | 10 to 100
COc1cccc(OC)c1-n1c(CCC(C)C)nc(O)c(Cc2ccc(-n3ccccc3=O)cc2)c1=O [Example 34, 3-(2,6-dimethoxyphenyl)-6-hydroxy-2-(3-methylbutyl)-5-{[4-(2-oxo-1,2-dihydropyridin-1-yl)phenyl]methyl}-3,4-dihydropyrimidin-4-one] | 0.01 to 10
CCCCc1nc(O)c(Cc2ccc(N3CCCCC3=O)cc2)c(=O)n1-c1c(OC)cccc1OC [Example 35, 2-butyl-3-(2,6-dimethoxyphenyl)-6-hydroxy-5-{[4-(2-oxopiperidin-1-yl)phenyl]methyl}-3,4-dihydropyrimidin-4-one] | 0.01 to 10
CCCCc1nc(O)c(Cc2ccc(N3CCOCC3)cc2)c(=O)n1-c1c(OC)cccc1OC [Example 36, 2-butyl-3-(2,6-dimethoxyphenyl)-6-hydroxy-5-{[4-(morpholin-4-yl)phenyl]methyl}-3,4-dihydropyrimidin-4-one] | 0.01 to 10
COc1cccc(OC)c1-n1c(C2CCCC2)nc(O)c(Cc2ccc(-n3ccccc3=O)cc2)c1=O [Example 38, 2-cyclopentyl-3-(2,6-dimethoxyphenyl)-6-hydroxy-5-{[4-(2-oxo-1,2-dihydropyridin-1-yl)phenyl]methyl}-3,4-dihydropyrimidin-4-one] | 0.01 to 10
COc1cccc(OC)c1-n1c(COC2CCC2)nc(O)c(Cc2ccc(-n3ccccc3=O)cc2)c1=O [Example 39, 2-(cyclobutoxymethyl)-3-(2,6-dimethoxyphenyl)-6-hydroxy-5-{[4-(2-oxo-1,2-dihydropyridin-1-yl)phenyl]methyl}-3,4-dihydropyrimidin-4-one] | 0.01 to 10
COc1cccc(OC)c1-n1c(COC2CC2)nc(O)c(Cc2ccc(-n3ccccc3=O)cc2)c1=O [Example 40, 2-(cyclopropoxymethyl)-3-(2,6-dimethoxyphenyl)-6-hydroxy-5-{[4-(2-oxo-1,2-dihydropyridin-1-yl)phenyl]methyl}-3,4-dihydropyrimidin-4-one] | 0.01 to 10
COc1cccc(OC)c1-n1c(CCC2CC2)nc(O)c(Cc2ccc(-n3ccccc3=O)cc2)c1=O [Example 41, 2-(2-cyclopropylethyl)-3-(2,6-dimethoxyphenyl)-6-hydroxy-5-{[4-(2-oxo-1,2-dihydropyridin-1-yl)phenyl]methyl}-3,4-dihydropyrimidin-4-one] | 0.01 to 10
CCCCc1nc(O)c(Cc2ccc(-n3ccc(Cl)cc3=O)cc2)c(=O)n1-c1c(OC)cccc1OC [Example 42, 2-butyl-5-{[4-(4-chloro-2-oxo-1,2-dihydropyridin-1-yl)phenyl]methyl}-3-(2,6-dimethoxyphenyl)-6-hydroxy-3,4-dihydropyrimidin-4-one] | 0.01 to 10
CCCCc1nc(O)c(Cc2ccc(-n3ccc(C)cc3=O)cc2)c(=O)n1-c1c(OC)cccc1OC [Example 43, 2-butyl-3-(2,6-dimethoxyphenyl)-6-hydroxy-5-{[4-(4-methyl-2-oxo-1,2-dihydropyridin-1-yl)phenyl]methyl}-3,4-dihydropyrimidin-4-one] | 0.01 to 10
CCCCc1nc(O)c(Cc2ccc(-c3ccc(C)nc3)cc2)c(=O)n1-c1c(OC)cccc1OC [Example 44, 2-butyl-3-(2,6-dimethoxyphenyl)-6-hydroxy-5-{[4-(6-methylpyridin-3-yl)phenyl]methyl}-3,4-dihydropyrimidin-4-one] | 10 to 100
CCCCc1nc(O)c(Cc2ccc(-c3ccccc3)cc2)c(=O)n1-c1c(OC)cccc1OC [Example 45, 5-({[1,1′-biphenyl]-4-yl}methyl)-2-butyl-3-(2,6-dimethoxyphenyl)-6-hydroxy-3,4-dihydropyrimidin-4-one] | 0.01 to 10

same assay, conditions: HEK293 cells stably expressing human APJ receptor; inhibition of forskolin-mediated cAMP production; read-out: Human APJ cAMP EC50 potency range

SMILES | EC50 [nM]
COc1cccc(OC)c1-n1c(-c2ccc(F)cc2)nc(O)c(Cc2ccc(-n3cc(F)ccc3=O)cc2)c1=O [Example 37, 3-(2,6-dimethoxyphenyl)-5-(4-(5-fluoro-2-oxopyridin-1(2H)-yl)benzyl)-2-(4-fluorophenyl)-6-hydroxypyrimidin-4(3H)-one] | 0.01 to 10
